Experimental data: ChEMBL document CHEMBL1201862, “PubChem BioAssay data set” (2004)
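Protocol summary: plate cells (96-well), add compound at 5 concentrations, incubate 48 h, interpolate endpoints linearly. GI50 marks 50% less growth.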 Activity calls are given as the source filed them. No stated cut-off is given here; in the data, active = GI50 up to about 1.1 µM and inactive = higher.

Tests used:
Assay in all cases: DTP human tumour cell line panel, 48 h
[1] = test system: A498
[2] = test system: A549
[3] = test system: ACHN
[4] = test system: CAKI-1
[5] = test system: CCRF-CEM
[6] = test system: COLO 205
[7] = test system: DLD-1
[8] = test system: DMS-114
[9] = test system: DMS-273
[10] = test system: EKVX
[11] = test system: HCC 2998
[12] = test system: HCT-116
[13] = test system: HCT-15
[14] = test system: HL-60
[15] = test system: HOP-18
[16] = test system: HOP-62
[17] = test system: HOP-92
[18] = test system: HT-29
[19] = test system: IGROV-1
[20] = test system: K562
[21] = test system: KM-20L2
[22] = test system: KM12
[23] = test system: LOX IMVI
[24] = test system: M19-MEL
[25] = test system: MOLT-4
[26] = test system: Malme-3M
[27] = test system: NCI-H226
[28] = test system: NCI-H23
[29] = test system: NCI-H460
[30] = test system: NCI-H522
[31] = test system: OVCAR-4
[32] = test system: OVCAR-5
[33] = test system: OVCAR-8
[34] = test system: RPMI-8226
[35] = test system: RXF 393
[36] = test system: RXF 631
[37] = test system: SF-268
[38] = test system: SF-295
[39] = test system: SF-539
[40] = test system: SK-MEL-28
[41] = test system: SK-MEL-2
[42] = test system: SK-MEL-5
[43] = test system: SK-OV-3
[44] = test system: SN12C
[45] = test system: SNB-19
[46] = test system: SNB-75
[47] = test system: SNB-78
[48] = test system: SR
[49] = test system: SW-620
[50] = test system: TK-10
[51] = test system: U-251
[52] = test system: UACC-257
[53] = test system: UACC-62
[54] = test system: UO-31
[55] = test system: XF498
[56] = test system: 786-0
[57] = test system: LXFL 529
[58] = test system: M14
[59] = test system: OVCAR-3

O=C(Nc1ccc(C(F)(F)F)cc1[N+](=O)[O-])C(=O)Nn1c(S)nc2ccccc2c1=O
GI50 [1]: > 100 µM (inactive) | GI50 [2]: > 100 µM (inactive) | GI50 [3]: > 100 µM (inactive) | GI50 [4]: > 100 µM (inactive) | GI50 [5]: > 100 µM (inactive) | GI50 [6]: > 100 µM (inactive) | GI50 [7]: > 100 µM (inactive) | GI50 [8]: > 100 µM (inactive) | GI50 [9]: > 100 µM (inactive) | GI50 [10]: 33.3 µM (inactive) | GI50 [11]: > 100 µM (inactive) | GI50 [12]: > 100 µM (inactive) | GI50 [13]: > 100 µM | GI50 [14]: > 100 µM (inactive) | GI50 [15]: > 100 µM (inactive) | GI50 [16]: > 100 µM (inactive) | GI50 [17]: > 100 µM (inactive) | GI50 [18]: > 100 µM (inactive) | GI50 [19]: > 100 µM (inactive) | GI50 [20]: > 100 µM (inactive) | GI50 [21]: > 100 µM (inactive) | GI50 [22]: > 100 µM (inactive) | GI50 [23]: > 100 µM (inactive) | GI50 [24]: > 100 µM (inactive) | GI50 [25]: > 100 µM (inactive) | GI50 [26]: > 100 µM (inactive) | GI50 [27]: > 100 µM (inactive) | GI50 [28]: > 100 µM (inactive) | GI50 [29]: > 100 µM (inactive) | GI50 [30]: > 100 µM (inactive) | GI50 [31]: > 100 µM (inactive) | GI50 [32]: > 100 µM (inactive) | GI50 [33]: > 100 µM (inactive) | GI50 [34]: > 100 µM (inactive) | GI50 [35]: > 100 µM (inactive) | GI50 [36]: > 100 µM (inactive) | GI50 [37]: > 100 µM (inactive) | GI50 [38]: > 100 µM (inactive) | GI50 [39]: > 100 µM (inactive) | GI50 [40]: > 100 µM (inactive) | GI50 [41]: > 100 µM (inactive) | GI50 [42]: > 100 µM (inactive) | GI50 [43]: > 100 µM (inactive) | GI50 [44]: > 100 µM (inactive) | GI50 [45]: > 100 µM (inactive) | GI50 [46]: > 100 µM (inactive) | GI50 [47]: > 100 µM (inactive) | GI50 [48]: > 100 µM (inactive) | GI50 [49]: > 100 µM (inactive) | GI50 [50]: > 100 µM (inactive) | GI50 [51]: > 100 µM (inactive) | GI50 [52]: > 100 µM (inactive) | GI50 [53]: > 100 µM (inactive) | GI50 [54]: > 100 µM (inactive) | GI50 [55]: > 100 µM (inactive)

COC(=O)CCC1=NOC(CC2CC(CCC(=O)OC)=NO2)C1 (stereo unspecified)
GI50 [56]: > 100 µM (inactive) | GI50 [1]: > 100 µM (inactive) | GI50 [2]: > 100 µM (inactive) | GI50 [4]: > 100 µM (inactive) | GI50 [5]: > 100 µM (inactive) | GI50 [6]: > 100 µM (inactive) | GI50 [7]: > 100 µM (inactive) | GI50 [8]: > 100 µM (inactive) | GI50 [9]: > 100 µM (inactive) | GI50 [10]: > 100 µM (inactive) | GI50 [11]: > 100 µM (inactive) | GI50 [12]: > 100 µM (inactive) | GI50 [13]: > 100 µM | GI50 [14]: > 100 µM (inactive) | GI50 [15]: > 100 µM (inactive) | GI50 [16]: > 100 µM (inactive) | GI50 [17]: > 100 µM (inactive) | GI50 [18]: > 100 µM (inactive) | GI50 [19]: > 100 µM (inactive) | GI50 [20]: > 100 µM (inactive) | GI50 [21]: > 100 µM (inactive) | GI50 [22]: > 100 µM (inactive) | GI50 [23]: > 100 µM (inactive) | GI50 [57]: > 100 µM (inactive) | GI50 [58]: > 100 µM (inactive) | GI50 [24]: > 100 µM (inactive) | GI50 [25]: > 100 µM (inactive) | GI50 [26]: > 100 µM (inactive) | GI50 [27]: > 100 µM (inactive) | GI50 [28]: > 100 µM (inactive) | GI50 [29]: > 100 µM (inactive) | GI50 [30]: > 100 µM (inactive) | GI50 [59]: > 100 µM (inactive) | GI50 [31]: > 100 µM (inactive) | GI50 [32]: > 100 µM (inactive) | GI50 [33]: > 100 µM (inactive) | GI50 [34]: > 100 µM (inactive) | GI50 [35]: > 100 µM (inactive) | GI50 [36]: > 100 µM (inactive) | GI50 [37]: > 100 µM (inactive) | GI50 [38]: > 100 µM (inactive) | GI50 [39]: > 100 µM (inactive) | GI50 [41]: > 100 µM (inactive) | GI50 [42]: > 100 µM (inactive) | GI50 [43]: > 100 µM (inactive) | GI50 [44]: > 100 µM (inactive) | GI50 [45]: > 100 µM (inactive) | GI50 [46]: > 100 µM (inactive) | GI50 [47]: > 100 µM (inactive) | GI50 [49]: > 100 µM (inactive) | GI50 [50]: > 100 µM (inactive) | GI50 [51]: > 100 µM (inactive) | GI50 [52]: > 100 µM (inactive) | GI50 [53]: > 100 µM (inactive) | GI50 [54]: > 100 µM (inactive) | GI50 [55]: > 100 µM (inactive)
